Test results from ChEMBL document CHEMBL5241136, “Design, synthesis and evaluation of heterocyclic 2-phenylacetate derivatives as water-soluble rapid recovery hypnotics” (Bioorg Med Chem Lett, 2023).

What was measured:
[1] = n-Octanol/water partition coefficient, logP of the compound; type: physicochemical
Mus musculus [2] = assay: Anesthetic activity in mouse assessed as concentration required to induce hypnotic effect; type: functional
[3] = target: GABA-A receptor; anion channel (Homo sapiens) (UniProt P14867+P47870+P18507+P28472+P48169+Q99928+Q9UN88+P34903+O00591+O14764+Q8N1C3+P18505+P78334+P47869+P31644+Q16445); assay: Inhibition of GABAA receptor (unknown origin) at 50 uM by radioligand receptor binding assay relative to control; type: protein-complex assay
Oryctolagus cuniculus [4] = assay: Anesthetic activity in rabbit assessed as concentration required to induce hypnotic effect; type: functional
[5] = Therapeutic index, ratio of LD50 for toxicity in rabbit to HD50 for anesthetic activity in rabbit assessed as concentration required to induce hypnotic effect; conditions: read-out: TI
[6] = Toxicity in rabbit assessed as lethal dose; parameters: species or system Oryctolagus cuniculus; conditions: in vivo
Mus musculus [7] = assay: Anesthetic activity in mouse assessed as time duration of loss of righting reflex; type: functional
Mus musculus [8] = assay: Anesthetic activity in mouse assessed as time to walk; type: functional
Oryctolagus cuniculus [9] = assay: Anesthetic activity in rabbit assessed as onset time; type: functional
[10] = Therapeutic index, ratio of LD50 for toxicity in mouse to HD50 for anesthetic activity in mouse assessed as concentration required to induce hypnotic effect; conditions: read-out: TI
Mus musculus [11] = assay: Anesthetic activity in mouse assessed as onset time; type: functional
Rattus norvegicus [12] = assay: Anesthetic activity in rat assessed as onset time; type: functional
Oryctolagus cuniculus [13] = assay: Anesthetic activity in rabbit assessed as time duration of loss of righting reflex; type: functional
Rattus norvegicus [14] = assay: Anesthetic activity in rat assessed as time to walk; type: functional
Mus musculus [15] = assay: Anesthetic activity in mouse assessed as time to behavioral recovery; type: functional
Rattus norvegicus [16] = assay: Anesthetic activity in rat assessed as time to behavioral recovery; type: functional
Oryctolagus cuniculus [17] = assay: Anesthetic activity in rabbit assessed as time to walk; type: functional
[18] = Therapeutic index, ratio of LD50 for toxicity in rat to HD50 for anesthetic activity in rat assessed as concentration required to induce hypnotic effect; conditions: read-out: TI
Rattus norvegicus [19] = assay: Anesthetic activity in rat assessed as concentration required to induce hypnotic effect; type: functional
[20] = Toxicity in rat assessed as lethal dose; conditions: in vivo
Rattus norvegicus [21] = assay: Anesthetic activity in rat assessed as time duration of loss of righting reflex; type: functional
[22] = Toxicity in mouse assessed as lethal dose; conditions: in vivo
[23] = n-octanol/water, read-out: logP

SMILES	logP [1, 23]	ED50 (Mus musculus [2])	inhibition [3]	selectivity ratio [10]	LD50 [22]	further results
CCCOC(=O)Cc1ccc(OCC(=O)N2CCNCC2)c(OCC)c1	1.7	> 100 mg/kg	23.1%	–	–	–
CC(C)c1cccc(C(C)C)c1O [PROPOFOL]	4.2	11.9 mg/kg	–	5.1	–	ED50 (Oryctolagus cuniculus [4]): 3.7 mg/kg; selectivity ratio [5]: 5.4; LD50 [6]: 20.2 mg/kg; Time (Mus musculus [7]): 240.9 s; Time (Mus musculus [8]): 46.5 s; Time (Oryctolagus cuniculus [9]): 21.7 s; Time (Mus musculus [11]): 8.1 s; Time (Rattus norvegicus [12]): 10.1 s; Time (Oryctolagus cuniculus [13]): 326.6 s; Time (Rattus norvegicus [14]): 286.5 s; Time (Mus musculus [15]): 242.7 s; Time (Rattus norvegicus [16]): 335.8 s; Time (Oryctolagus cuniculus [17]): 425.3 s
CCOC(=O)Cc1ccc(OCC(=O)N2CCOCC2)c(OCC)c1	1.1	35.5 mg/kg	62.8%	6.4	227 mg/kg	ED50 (Oryctolagus cuniculus [4]): 7.6 mg/kg; selectivity ratio [5]: 17.3; LD50 [6]: 131 mg/kg; Time (Mus musculus [7]): 112.9 s; selectivity ratio [18]: 8.5; ED50 (Rattus norvegicus [19]): 10.5 mg/kg; Time (Mus musculus [8]): 39.8 s; LD50 [20]: 89.3 mg/kg; Time (Oryctolagus cuniculus [9]): 24.6 s; Time (Mus musculus [11]): 7.6 s; Time (Rattus norvegicus [12]): 8.7 s; Time (Oryctolagus cuniculus [13]): 197.2 s; Time (Rattus norvegicus [14]): 25.8 s; Time (Rattus norvegicus [21]): 78.9 s; Time (Mus musculus [15]): 69.3 s; Time (Rattus norvegicus [16]): 65.8 s; Time (Oryctolagus cuniculus [17]): 96.6 s
CCOc1cc(CC(=O)OC(C)C)ccc1OCC(=O)N1CCNCC1	1.5	> 100 mg/kg	36.4%	–	–	–
CCCOC(=O)Cc1ccc(OCC(=O)N2CCN(C(=O)OC(C)(C)C)CC2)c(OCC)c1	2.3	32.9 mg/kg	33.4%	7.3	240 mg/kg	–
CCCOC(=O)Cc1ccc(OCC(=O)N2CCCC2)c(OCC)c1	2.3	60.8 mg/kg	47.8%	–	–	–
CCOc1cc(CC(=O)OC(C)C)ccc1OCC(=O)N1CCN(C(=O)OC(C)(C)C)CC1	2.1	36.8 mg/kg	29.3%	7	258 mg/kg	–
CCOc1cc(CC(=O)OC(C)C)ccc1OCC(=O)N1CCOCC1	1.2	30.8 mg/kg	76.8%	6.5	200 mg/kg	ED50 (Oryctolagus cuniculus [4]): 7.4 mg/kg; selectivity ratio [5]: 15.2; LD50 [6]: 112 mg/kg; Time (Mus musculus [7]): 116.8 s; selectivity ratio [18]: 11.2; ED50 (Rattus norvegicus [19]): 11.4 mg/kg; Time (Mus musculus [8]): 54.9 s; LD50 [20]: 128 mg/kg; Time (Oryctolagus cuniculus [9]): 19.9 s; Time (Mus musculus [11]): 7.5 s; Time (Rattus norvegicus [12]): 11.1 s; Time (Oryctolagus cuniculus [13]): 188.6 s; Time (Rattus norvegicus [14]): 32.6 s; Time (Rattus norvegicus [21]): 84.6 s; Time (Mus musculus [15]): 96.8 s; Time (Rattus norvegicus [16]): 61.7 s; Time (Oryctolagus cuniculus [17]): 81.4 s
CCOC(=O)Cc1cc(OCC)c(OCC(=O)N(CC)CC)cc1F	–	–	–	–	–	logP ([1]; octanol/water): 2.1
CCCOC(=O)Cc1ccc(OCC(=O)N2CCOCC2)c(OCC)c1	1.4	32.2 mg/kg	64.3%	6.2	200 mg/kg	ED50 (Oryctolagus cuniculus [4]): 6.5 mg/kg; selectivity ratio [5]: 16.6; LD50 [6]: 108 mg/kg; Time (Mus musculus [7]): 104.8 s; selectivity ratio [18]: 10.1; ED50 (Rattus norvegicus [19]): 12.2 mg/kg; Time (Mus musculus [8]): 46.8 s; LD50 [20]: 123 mg/kg; Time (Oryctolagus cuniculus [9]): 21.3 s; Time (Mus musculus [11]): 6.7 s; Time (Rattus norvegicus [12]): 9.2 s; Time (Oryctolagus cuniculus [13]): 211.4 s; Time (Rattus norvegicus [14]): 37.9 s; Time (Rattus norvegicus [21]): 81.2 s; Time (Mus musculus [15]): 89.6 s; Time (Rattus norvegicus [16]): 69.6 s; Time (Oryctolagus cuniculus [17]): 79.6 s
CCCOC(=O)Cc1ccc(OCC(=O)N(CC)CC)c(OC)c1 [PROPANIDID]	–	20.9 mg/kg	–	–	–	ED50 (Oryctolagus cuniculus [4]): 5.1 mg/kg; Time (Mus musculus [7]): 89.6 s; Time (Mus musculus [8]): 56.3 s; Time (Oryctolagus cuniculus [9]): 22.6 s; Time (Mus musculus [11]): 6.7 s; Time (Rattus norvegicus [12]): 16.3 s; Time (Oryctolagus cuniculus [13]): 265.4 s; Time (Rattus norvegicus [14]): 58.7 s; Time (Mus musculus [15]): 83.9 s; Time (Rattus norvegicus [16]): 79.9 s; Time (Oryctolagus cuniculus [17]): 124.5 s
CCCOC(=O)Cc1ccc(OCC(=O)N2CCN(C(=O)OC(C)(C)C)CC2)c(OC)c1	1.9	43.6 mg/kg	36.1%	7.8	340 mg/kg	–
COc1cc(CC(=O)OC(C)C)ccc1OCC(=O)N1CCOCC1	1.3	46.8 mg/kg	35.7%	5.9	276 mg/kg	–
CCOc1cc(CC(=O)OCC(F)(F)F)ccc1OCC(=O)N(CC)CC	2.6	–	–	–	–	–
COc1cc(CC(=O)OC(C)C)ccc1OCC(=O)N1CCNCC1	1.8	> 100 mg/kg	57.8%	–	–	–
CCCOC(=O)Cc1ccc(OCC(=O)N(CC)CC)c(OCC)c1 [AZD-3043]	2.8	17.6 mg/kg	–	–	–	ED50 (Oryctolagus cuniculus [4]): 4.6 mg/kg; Time (Mus musculus [7]): 63.8 s; Time (Mus musculus [8]): 22.9 s; Time (Oryctolagus cuniculus [9]): 19.8 s; Time (Mus musculus [11]): 5.6 s; Time (Rattus norvegicus [12]): 12.4 s; Time (Oryctolagus cuniculus [13]): 221.6 s; Time (Rattus norvegicus [14]): 38.4 s; Time (Mus musculus [15]): 89.6 s; Time (Rattus norvegicus [16]): 56.9 s; Time (Oryctolagus cuniculus [17]): 89.6 s
CCOC(=O)Cc1ccc(OCC(=O)N2CCOCC2)c(OC)c1	1.4	44.8 mg/kg	52.9%	6.2	278 mg/kg	–
COc1cc(CC(=O)OC(C)C)ccc1OCC(=O)N1CCN(C(=O)OC(C)(C)C)CC1	1.8	38.2 mg/kg	69.7%	6.9	264 mg/kg	–
CCOC(=O)Cc1ccc(OCC(=O)N2CCNCC2)c(OC)c1	1.5	> 100 mg/kg	44.5%	–	–	–
CCCOC(=O)Cc1ccc(OCC(=O)N2CCOCC2)c(OC)c1	1.5	52.9 mg/kg	46.3%	6.4	339 mg/kg	–
CCCOC(=O)Cc1ccc(OCC(=O)N2CCNCC2)c(OC)c1	1.7	> 100 mg/kg	38.6%	–	–	–
CCOC(=O)Cc1ccc(OCC(=O)N2CCCC2)c(OCC)c1	2.1	56 mg/kg	26.5%	–	–	–
CCOC(=O)Cc1ccc(OCC(=O)N2CCN(C(=O)OC(C)(C)C)CC2)c(OCC)c1	1.8	30.6 mg/kg	45.2%	7.1	217 mg/kg	–
CCCOC(=O)Cc1ccc(OCC(=O)N2CCCC2)c(OC)c1	1.8	64.2 mg/kg	72.5%	–	–	–
CCOC(=O)Cc1ccc(OCC(=O)N2CCNCC2)c(OCC)c1	2	> 100 mg/kg	65.2%	–	–	–
CCOC(=O)Cc1ccc(OCC(=O)N2CCCC2)c(OC)c1	1.3	56.8 mg/kg	48.8%	–	–	–
COc1cc(CC(=O)OC(C)C)ccc1OCC(=O)N1CCCC1	1.9	59.9 mg/kg	55.6%	–	–	–
CCOC(=O)Cc1ccc(OCC(=O)N2CCN(C(=O)OC(C)(C)C)CC2)c(OC)c1	1.5	35.2 mg/kg	55.2%	7.3	257 mg/kg	–
